Source: patent US20250171431A1, “HETEROCYCLIC INHIBITORS OF IGF-1R FOR TREATMENT OF DISEASE” (HORIZON THERAPEUTICS IRELAND DAC, priority 2023, published 2025)

These compounds were tested against IGF-1R (Homo sapiens (Human), UniProt P08069) (assay: Example B-1: IGF-1R Assay (PC3 cells, IGF1 stimulation, AlphaLISA)). Conditions: 200 ng/mL IGF1 stimulation, read-out: Biological Activity against IGF-1R IC50.
Format: cell-based
How it was run: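 Readout is AlphaLISA signal from lysed PC3 cells, expressed as % inhibition versus vehicle and EC80 controls and banded by IC50. Before lysis, the cells were starved of serum for 2 h, exposed to 3× serially diluted compound for 2 h, and stimulated for 30 min with 200 ng/mL IGF1 (final).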

Sequence of IGF-1R (P08069 31-1367): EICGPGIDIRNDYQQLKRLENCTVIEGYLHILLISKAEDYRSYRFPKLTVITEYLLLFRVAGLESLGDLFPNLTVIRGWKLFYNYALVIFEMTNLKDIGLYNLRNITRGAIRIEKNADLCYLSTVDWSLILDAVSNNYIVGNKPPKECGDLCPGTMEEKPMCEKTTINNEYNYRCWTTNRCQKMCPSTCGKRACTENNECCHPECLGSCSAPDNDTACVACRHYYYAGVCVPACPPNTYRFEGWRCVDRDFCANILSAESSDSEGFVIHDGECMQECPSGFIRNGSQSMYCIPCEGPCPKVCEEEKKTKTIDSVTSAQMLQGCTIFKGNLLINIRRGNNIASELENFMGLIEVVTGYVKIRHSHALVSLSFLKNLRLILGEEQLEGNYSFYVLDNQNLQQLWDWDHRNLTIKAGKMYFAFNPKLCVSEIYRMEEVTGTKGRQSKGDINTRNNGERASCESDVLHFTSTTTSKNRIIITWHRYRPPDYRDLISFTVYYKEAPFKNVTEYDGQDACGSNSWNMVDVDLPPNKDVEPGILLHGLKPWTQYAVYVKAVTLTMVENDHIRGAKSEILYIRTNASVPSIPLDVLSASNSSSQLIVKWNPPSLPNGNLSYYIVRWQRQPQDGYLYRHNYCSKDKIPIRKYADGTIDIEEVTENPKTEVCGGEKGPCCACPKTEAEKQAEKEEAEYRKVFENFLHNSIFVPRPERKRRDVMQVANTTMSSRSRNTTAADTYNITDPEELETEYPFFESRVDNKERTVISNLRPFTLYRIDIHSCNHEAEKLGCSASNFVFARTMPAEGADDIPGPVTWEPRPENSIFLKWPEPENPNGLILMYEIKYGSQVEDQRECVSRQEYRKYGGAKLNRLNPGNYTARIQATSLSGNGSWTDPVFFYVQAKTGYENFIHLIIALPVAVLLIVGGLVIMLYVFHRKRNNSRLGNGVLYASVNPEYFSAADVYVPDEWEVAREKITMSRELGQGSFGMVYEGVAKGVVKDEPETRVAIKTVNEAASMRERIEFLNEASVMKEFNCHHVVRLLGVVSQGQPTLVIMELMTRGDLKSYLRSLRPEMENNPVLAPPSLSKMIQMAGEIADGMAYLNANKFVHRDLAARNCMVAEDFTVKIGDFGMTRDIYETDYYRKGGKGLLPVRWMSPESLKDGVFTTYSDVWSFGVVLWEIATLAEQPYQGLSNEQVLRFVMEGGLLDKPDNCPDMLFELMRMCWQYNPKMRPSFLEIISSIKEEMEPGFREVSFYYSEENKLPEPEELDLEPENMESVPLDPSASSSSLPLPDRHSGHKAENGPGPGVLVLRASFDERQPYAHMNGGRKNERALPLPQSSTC

| SMILES | IC50 [nM] |
| --- | --- |
| COc1cc(Nc2nccc(Nc3cnc4ccc(C#N)cc4c3)n2)ccc1O[C@H]1C[C@@H](N(C)C)C1 [Compound 313, 3-(2-{3-methoxy-4-[(1s,3s)-3-(dimethylamino)cyclobutoxy]phenylamino}-4-pyrimidinylamino)-6-quinolinecarbonitrile] | ≤ 500 |
| COc1cc(Nc2nccc(Nc3ccc4ncc(Br)cc4n3)n2)ccc1O[C@H]1C[C@@H](N(C)C)C1 [Compound 314, 4-(7-bromo-1,5-diaza-2-naphthylamino)-2-{3-methoxy-4-[(1s,3s)-3-(dimethylamino)cyclobutoxy]phenylamino}pyrimidine] | > 10000 |
| CN(C)[C@H]1C[C@H](Oc2ccc(Nc3nccc(Nc4cnc5c(c4)CCCC5)n3)cc2)C1 [Compound 315, 2-{p-[(1r,3r)-3-(dimethylamino)cyclobutoxy]phenylamino}-4-(5,6,7,8-tetrahydro-3-quinolylamino)pyrimidine] | ≤ 500 |
| COc1cc(Nc2nccc(Nc3cnc4cc(Br)cnc4c3)n2)ccc1O[C@H]1C[C@@H](N(C)C)C1 [Compound 316, 4-(7-bromo-1,5-diaza-3-naphthylamino)-2-{3-methoxy-4-[(1s,3s)-3-(dimethylamino)cyclobutoxy]phenylamino}pyrimidine] | ≤ 500 |
| CN(C)[C@H]1C[C@H](Oc2ccc(Nc3nccc(Nc4cnc5c(c4)OCCO5)n3)cc2)C1 [Compound 317, 4-(2,3-dihydro-1,4-dioxa-5-aza-7-naphthylamino)-2-{p-[(1r,3r)-3-(dimethylamino)cyclobutoxy]phenylamino}pyrimidine] | ≤ 500 |
| CN(C)[C@H]1C[C@H](Oc2ccc(Nc3nccc(Nc4cnc5c(c4)SCCC5)n3)cc2)C1 [Compound 318, 4-(3,4-dihydro-2H-1-thia-5-azanaphth-7-ylamino)-2-{p-[(1r,3r)-3-(dimethylamino)cyclobutoxy]phenylamino}pyrimidine] | ≤ 500 |
| CN(C)[C@H]1C[C@H](Oc2ccc(Nc3nccc(Nc4cnc5ccc(Cl)cc5c4)n3)cc2)C1 [Compound 319, 4-(6-chloro-3-quinolylamino)-2-{p-[(1r,3r)-3-(dimethylamino)cyclobutoxy]phenylamino}pyrimidine] | ≤ 500 |
| CN(C)[C@H]1C[C@H](Oc2ccc(Nc3nccc(Nc4cnc5ccc(Br)cc5c4)n3)cc2)C1 [Compound 320, 4-(6-bromo-3-quinolylamino)-2-{p-[(1r,3r)-3-(dimethylamino)cyclobutoxy]phenylamino}pyrimidine] | ≤ 500 |
| COc1cc(Nc2nccc(Nc3cnc4c(c3)C3CCC4C3)n2)ccc1O[C@H]1C[C@@H](N(C)C)C1 (some centres unmarked) [Compound 321, 4-{3-azatricyclo[6.2.1.02,7]undeca-2(7),3,5-trien-5-ylamino}-2-{3-methoxy-4-[(1s,3s)-3-(dimethylamino)cyclobutoxy]phenylamino}pyrimidine] | ≤ 500 |
| COc1cc(Nc2nccc(Nc3cnc4c(c3)CC3(CC4)OCCO3)n2)ccc1O[C@H]1C[C@@H](N(C)C)C1 [Compound 322, 4-(7′,8′-dihydro-5′H-spiro[1,3-dioxolane-2,6′-quinolin]-3′-ylamino)-2-{3-methoxy-4-[(1s,3s)-3-(dimethylamino)cyclobutoxy]phenylamino}pyrimidine] | ≤ 500 |
| COc1cc(Nc2nccc(Nc3cnc4c(F)c(F)ccc4c3)n2)ccc1O[C@H]1C[C@H](N(C)C)C1 [Compound 323, 4-(7,8-difluoro-3-quinolylamino)-2-{3-methoxy-4-[(1r,3r)-3-(dimethylamino)cyclobutoxy]phenylamino}pyrimidine] | ≤ 500 |
| COc1cc(Nc2nccc(Nc3cnc4cc(Cl)ccc4c3)n2)ccc1O[C@H]1C[C@H](N(C)C)C1 [Compound 324, 4-(7-chloro-3-quinolylamino)-2-{3-methoxy-4-[(1r,3r)-3-(dimethylamino)cyclobutoxy]phenylamino}pyrimidine] | ≤ 500 |
| COc1cc(Nc2nccc(Nc3cnc4ccc(C5CC5)cc4c3)n2)ccc1O[C@H]1C[C@H](N(C)C)C1 [Compound 325, 4-(6-cyclopropyl-3-quinolylamino)-2-{3-methoxy-4-[(1r,3r)-3-(dimethylamino)cyclobutoxy]phenylamino}pyrimidine] | ≤ 500 |
| COc1cc(Nc2nccc(Nc3cnc4cc(O)ccc4c3)n2)ccc1O[C@H]1C[C@H](N(C)C)C1 [Compound 326, 3-(2-{3-methoxy-4-[(1r,3r)-3-(dimethylamino)cyclobutoxy]phenylamino}-4-pyrimidinylamino)-7-quinolinol] | ≤ 500 |
| Fc1cnc(Nc2ccc(O[C@H]3C[C@H](N4CCOCC4)C3)cc2)nc1Nc1cnc2ccccc2c1 [Compound 327, 5-fluoro-4-(3-quinolylamino)-2-{p-[(1r,3r)-3-morpholinocyclobutoxy]phenylamino}pyrimidine] | ≤ 500 |
| COc1cc(Nc2nccc(Nc3cnc4cc(Br)ccc4c3)n2)ccc1O[C@H]1C[C@H](N(C)C)C1 [Compound 328, 4-(7-bromo-3-quinolylamino)-2-{3-methoxy-4-[(1r,3r)-3-(dimethylamino)cyclobutoxy]phenylamino}pyrimidine] | ≤ 500 |

| SMILES | IC50 [nM] |
| --- | --- |
| COc1cc(Nc2nccc(Nc3cnc4ccc(S(C)(=O)=O)cc4c3)n2)ccc1O[C@H]1C[C@H](N(C)C)C1 [Compound 329, 4-(6-mesyl-3-quinolylamino)-2-{3-methoxy-4-[(1r,3r)-3-(dimethylamino)cyclobutoxy]phenylamino}pyrimidine] | ≤ 500 |
| COc1cc(Nc2nccc(Nc3cnc4ccc(O)cc4c3)n2)ccc1O[C@H]1C[C@H](N(C)C)C1 [Compound 330, 3-(2-{3-methoxy-4-[(1r,3r)-3-(dimethylamino)cyclobutoxy]phenylamino}-4-pyrimidinylamino)-6-quinolinol] | ≤ 500 |
| COc1cc(Nc2nccc(Nc3cnc4ccccc4c3)n2)ccc1O[C@H]1CC[C@@H](N(C)C)CC1 [Compound 331] | ≤ 500 |
| COc1cc(Nc2nccc(Nc3cnc4c(Cl)cccc4c3)n2)ccc1O[C@H]1CC[C@@H](N(C)C)CC1 [Compound 332, 4-(8-chloro-3-quinolylamino)-2-{3-methoxy-4-[(1s,4s)-4-(dimethylamino)cyclohexyloxy]phenylamino}pyrimidine] | ≤ 500 |
| COc1cc(Nc2nccc(Nc3cnc4c(Cl)cccc4c3)n2)ccc1O[C@H]1CC[C@@H](N2CCOCC2)CC1 [Compound 333, 4-(8-chloro-3-quinolylamino)-2-{3-methoxy-4-[(1s,4s)-4-morpholinocyclohexyloxy]phenylamino}pyrimidine] | ≤ 500 |
| COc1cc(Nc2nccc(Nc3cnc4ccc(C(F)(F)F)cc4c3)n2)ccc1O[C@H]1C[C@H](N(C)C)C1 [Compound 334, 2-{3-methoxy-4-[(1r,3r)-3-(dimethylamino)cyclobutoxy]phenylamino}-4-[6-(trifluoromethyl)-3-quinolylamino]pyrimidine] | ≤ 500 |
| COc1cc(Nc2nccc(Nc3cnc4ccc(C)cc4c3)n2)ccc1O[C@H]1C[C@H](N(C)C)C1 [Compound 335, 2-{3-methoxy-4-[(1r,3r)-3-(dimethylamino)cyclobutoxy]phenylamino}-4-(6-methyl-3-quinolylamino)pyrimidine] | ≤ 500 |
| COc1cc(Nc2nccc(Nc3cnc4cc(C)ccc4c3)n2)ccc1O[C@H]1C[C@H](N(C)C)C1 [Compound 336, 2-{3-methoxy-4-[(1r,3r)-3-(dimethylamino)cyclobutoxy]phenylamino}-4-(7-methyl-3-quinolylamino)pyrimidine] | ≤ 500 |
| COc1ccc2cc(Nc3ccnc(Nc4ccc(O[C@H]5C[C@H](N(C)C)C5)c(OC)c4)n3)cnc2c1 [Compound 337, 4-(7-methoxy-3-quinolylamino)-2-{3-methoxy-4-[(1r,3r)-3-(dimethylamino)cyclobutoxy]phenylamino}pyrimidine] | ≤ 500 |
| COc1cc(Nc2nccc(Nc3cnc4c(c3)CCC(C)(C)C4)n2)ccc1O[C@H]1C[C@H](N(C)C)C1 [Compound 338, 4-(7,7-dimethyl-5,6,7,8-tetrahydro-3-quinolylamino)-2-{3-methoxy-4-[(1r,3r)-3-(dimethylamino)cyclobutoxy]phenylamino}pyrimidine] | ≤ 500 |
| COc1cc(Nc2nccc(Nc3cnc4c(c3)CC(C)(C)CC4)n2)ccc1O[C@H]1C[C@H](N(C)C)C1 [Compound 339, 4-(6,6-dimethyl-5,6,7,8-tetrahydro-3-quinolylamino)-2-{3-methoxy-4-[(1r,3r)-3-(dimethylamino)cyclobutoxy]phenylamino}pyrimidine] | ≤ 500 |
| COc1cc(Nc2nccc(Nc3cc4ccccc4nc3OC)n2)ccc1O[C@H]1C[C@H](N(C)C)C1 [Compound 340, 4-(2-methoxy-3-quinolylamino)-2-{3-methoxy-4-[(1r,3r)-3-(dimethylamino)cyclobutoxy]phenylamino}pyrimidine] | ≤ 500 |
| COc1cc(Nc2nccc(Nc3cnc4cc(C(F)(F)F)ccc4c3)n2)ccc1O[C@H]1C[C@H](N(C)C)C1 [Compound 341, 2-{3-methoxy-4-[(1r,3r)-3-(dimethylamino)cyclobutoxy]phenylamino}-4-[7-(trifluoromethyl)-3-quinolylamino]pyrimidine] | 500 to 2000 |
| COc1cc(Nc2nccc(Nc3cnc4cc(Cl)ccc4c3)n2)ccc1O[C@H]1C[C@@H](N(C)C)C1 [Compound 342, 4-(7-chloro-3-quinolylamino)-2-{3-methoxy-4-[(1s,3s)-3-(dimethylamino)cyclobutoxy]phenylamino}pyrimidine] | ≤ 500 |
| COc1cc(Nc2nccc(Nc3cnc4ccc(Cl)cc4c3)n2)ccc1O[C@H]1C[C@@H](N(C)C)C1 [Compound 343, 4-(6-chloro-3-quinolylamino)-2-{3-methoxy-4-[(1s,3s)-3-(dimethylamino)cyclobutoxy]phenylamino}pyrimidine] | ≤ 500 |
| COc1ccc2cc(Nc3ccnc(Nc4ccc(O[C@@H]5C[C@H]6COC[C@@H](C5)N6C)cc4)n3)cnc2c1 [Compound 345, 2-(p-{(1R,5S,7s)-9-methyl-3-oxa-9-azabicyclo[3.3.1]non-7-yloxy}phenylamino)-4-(7-methoxy-3-quinolylamino)pyrimidine] | 500 to 2000 |
